The target in test [1] is T1, recombinant human KAT-II (kynurenine aminotransferase II) (Homo sapiens, UniProt Q8N5Z0).
T1 construct: gene AADAT; recombinant, purchased from R&D Systems (Bio-Techne)
As to the kind of experiment: Lineweaver-Burk analysis, same fluorescent assay. The test is classed as biochemical. The method, then:
Lineweaver-Burk analysis, same fluorescent assay on recombinant human KAT-II (kynurenine aminotransferase II) | competitive inhibition constant (Ki) for herbacetin and (-)-Epicatechin was calculated

For test [2], the target named is T1, recombinant human KAT-II (kynurenine aminotransferase II). As to the kind of experiment: microplate fluorescent kynurenine aminotransferase assay coupled to glutamate dehydrogenase. In kind it is biochemical.

Results on three compounds are retold here after PMC11768104, “Identification of Two Flavonoids as New and Safe Inhibitors of Kynurenine Aminotransferase II via Computational and In Vitro Study” (Pharmaceuticals, 2025).

Structures are written as SMILES. Like-named read-outs stand apart in the source and are kept apart here.

T1 sequence (Q8N5Z0 30-425): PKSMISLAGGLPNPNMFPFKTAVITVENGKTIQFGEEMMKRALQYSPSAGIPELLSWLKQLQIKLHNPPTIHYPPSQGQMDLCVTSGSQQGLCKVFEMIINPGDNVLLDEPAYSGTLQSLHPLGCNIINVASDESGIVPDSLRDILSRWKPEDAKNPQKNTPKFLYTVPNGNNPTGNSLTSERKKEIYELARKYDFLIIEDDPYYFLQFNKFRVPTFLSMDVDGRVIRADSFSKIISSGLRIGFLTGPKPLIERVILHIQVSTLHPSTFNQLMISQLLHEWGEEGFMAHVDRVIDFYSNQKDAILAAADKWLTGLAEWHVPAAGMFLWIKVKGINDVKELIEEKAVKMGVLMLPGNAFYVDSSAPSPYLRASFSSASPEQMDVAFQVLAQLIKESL

As a reminder, the Ki is the equilibrium dissociation constant of an inhibitor or competing ligand from its target. By IC50 is commonly meant the point on the concentration scale where inhibition reaches its midpoint. Consider `Oc1cc(O)c2c(c1)O[C@H](c1ccc(O)c(O)c1)[C@H](O)C2` [(-)-Epicatechin], for which the Ki in test [1] is 9.23 ± 0.39 µM. The half-inhibitory concentration (IC50) in test [2] was found to be 8.76 ± 0.76 µM.

Take `N[C@H]1Cc2ccccc2N(O)C1=O` [PF-04859989, reference compound]: in test [2] (1 mM L-KYN, 50 µM α-ketoglutaric acid, 5 µM PLP, pH 7.5, 30 min pre-incubation at room temperature, irreversible (binds PLP), covalent, non-competitive, error printed as 1.83), the concentration for half-maximal inhibition (IC50) is 0.0279 ± 0.00181 µM.

`O=c1c(O)c(-c2ccc(O)cc2)oc2c(O)c(O)cc(O)c12` [herbacetin]: the Ki in test [1] was determined as 7.64 ± 0.46 µM. For the same compound, in test [2], the half-maximal inhibitory concentration (IC50) is 5.98 ± 0.18 µM.
